# Assay: XTT cytotoxicity assay according to ISO 10993
# Settings: mouse
# Text: A larger scale batch (100 Liter) of Formulation E was further evaluated in more detail with an XTT test according to ISO 10993, published by the International Organization for Standardization: “Biological Evaluation of Medical Devices”, Part 1: “Evaluation and testing within a risk management process”, 2018, Part 5: “Tests for in vitro cytotoxicity”, 2009 using a valuated method from the ICCR-Roßdorf GmbH (Germany) and a Xenometrix test kit. With the XTT assay, cell proliferation and viability as well as the mitochondrial metabolic competence of the cells after treatment with a test item is determined […]. The XTT test is based on the cleavage of the yellow tetrazolium salt XTT [_(sodium 3′-(1-phenylaminocarbonyl)-(3,4-tetrazolium)-bis-(4-methoxy-6-nitro)-benzenesulfonic acid hydrate)] to form an orange water soluble formazan dye by dehydrogenase activity in active mitochondria. This method was first described 1988 by SCUDIERO et al.
# In brief, the potential cytotoxic effect was evaluated with a dilution series of formulation E in complete medium [RPMI 1640 medium (including glutamax), supplemented with 10% FCS, 1 mM sodium pyruvate, and 100 units/mL penicillin, and 100 μg/mL streptomycin] resulting in the following end concentrations 39.1 μg/mL, 78.1 μg/mL, 156 μg/mL, 313 μg/mL, 625 μg/mL, 1250 μg/mL; 2500 μg/mL, 5000 μg/mL. Subsequently the effect of the solution was examined after 24±1 h treatment time on prior prepared mouse L929 cell line (supplied by DSMZ, 38124 Braunschweig, Germany). In parallel several controls were tested as well:
# Medium Control=Complete medium; Solvent control=Complete medium, Positive control=Sodium dodecyl sulfate (SDS; purity: ≥99%); Solvent=deionized water, diluted with complete medium to a ratio of 1:10 (v/v). The positive control was tested in 8 concentrations in a range from 3.1-250 μg/mL. Solvent control for the positive control=Complete medium and 10% (v/v) deionized water.
# At the end of the incubation period, 50 μL of the XTT labelling mixture (Xenometrix, Allschwil, Switzerland) were added to each well. The cells were incubated and subsequently transferred to a microplate reader and the absorbance values were determined (Versamax® Molecular Devices, software SoftMax Pro Enterprise (version 4.7.1)) at 450 nm (reference wavelength 690 nm). A decrease in number of living cells results in a decrease in the overall activity of mitochondrial dehydrogenases in the sample. This decrease directly correlates to the amount of orange formazan formed, as monitored by the absorbance. The relative absorbance (=viability) as compared to the solvent control is calculated using this formula: […]
# To calculate the concentration of toxicant required to reduce the relative absorbance to 50% of the solvent control (XTT50) the following formula is used:
# [formula] • a) Conc.>50=max. measured concentration with the % of solvent control >50% • b) Conc.<50=min. measured concentration with the % of solvent control <50% • c) %>50=relative absorbance at a) in % • d) %<50=relative absorbance at b) in %
# The lower the XTT50 value, the higher is the cytotoxic potential of the test item.
smiles,measurement,value
"CCCCCCCCCCCCOS(=O)(=O)[O-].[Na+] [SDS, Sodium dodecyl sulfate]",viability at 3.1 μg/mL,96.9%
same,viability at 6.3 μg/mL,97.2%
same,viability at 12.5 μg/mL,99.9%
same,viability at 25 μg/mL,91.7%
same,viability at 50 μg/mL,85%
same,viability at 100 μg/mL,5.8%
same,viability at 125 μg/mL,1.63%
same,viability at 250 μg/mL,0.16%

# Source: patent publication US12527327B2, “High hyaluronate multi-purpose disinfection solutions for ophthalmic applications” (CIS BIOPHARMA AG, priority 2019, dated 2026)
